Among the data in patent publication US20230063462A1, “SULFONIMIDAMIDE COMPOUNDS AND COMPOSITIONS FOR TREATING CONDITIONS ASSOCIATED WITH NLRP ACTIVITY” (NOVARTIS AG, priority 2019, published 2023) are IC50 values, retold here.

The test concerns THP-1 cells. Nature of the test: hTHP-1 assay: gramicidin-stimulated IL-1β detection in PMA-treated THP-1 cells. Format: cell-based, human. How it is done: The following protocol is suitable for testing the activity of the compounds disclosed herein.
1. Experimental procedure • 1.1 Cell Culture • 1) Culture THP-1 cells in the complete RPMI-1640 medium with 10% FBS at 37° C., 5% CO2. • 2) Passage the cells every 3 days by inoculating 3×10^5 cells per ml. • 1.2 Compound Preparation • Prepare the 3-fold serial dilution of the compounds with DMSO in a 384-well LDV Microplate using TECAN EVO system to generate the compound source plate with 10 concentrations. […] HC: 100 μM CRID3 (MCC950)+5 μM gramicidin LC: 5 μM Gramicidin. • 1.5 IL-1β Detection • 1) Homogenize the 5× diluent #5 with a vortex and add 1 volume of stock solution in 4 volumes of distilled water. • 2) Thaw 20× stock solution of anti-IL1β-Cryptate-antibody and anti-IL1β XL-antibody. Dilute these two antibodies to 1× with detection buffer #3. • 3) Pre-mix the two ready-to-use antibody solutions just prior to use. • 4) Dispense 4 ul of pre-mixed Anti-IL1β antibodies working solution into all wells. • 5) Seal the plate and incubate overnight at 4° C. • 6) Read the cell plate using EnVison and plot Readout vs. the test compound concentration to calculate the IC50.
2. Data Analysis: • 1. IC50 of compounds can be calculated using the following formulas • Formula for IC50
% inhibition=100−100×[HCave-Readout/(HCave−LCave)] • 2. Fit the normalized data in a dose-response manner using XLfit, and calculate the compound concentration.

[1] abbreviates: Table B1, 2% fetal bovine serum, class symbol, read-out: hTHP-1 IC50.
Where [2] appears, read: Table B1, 2% fetal bovine serum, numeric value, read-out: hTHP-1 IC50.
[3] abbreviates: Homo sapiens, THP-1, Table B2, 10% FBS, class symbol, read-out: hTHP-1 IC50 in 10% FBS.
The mark [4] stands for this setting: Homo sapiens, THP-1, Table B2, 10% FBS, numeric value, read-out: hTHP-1 IC50 in 10% FBS.
Where [5] appears, read: Homo sapiens, THP-1, Table B1, 2% fetal bovine serum, class symbol, read-out: hTHP-1 IC50.
[6] abbreviates: Homo sapiens, THP-1, Table B1, 2% fetal bovine serum, numeric value, read-out: hTHP-1 IC50.

Where two headings read alike, the source gives them in different places. A value given as a limit tells only on which side of the number the result lay.

By IC50 is commonly meant the midpoint of a concentration-inhibition curve.

Turning to `N#CNS(=O)(=NC(=O)Nc1c2c(cc3c1CCC3)CCC2)c1ccccc1` (single isomer, unassigned) [Example 34, (R) or (S)-N-cyano-N′-((1,2,3,5,6,7-hexahydro-s-indacen-4-yl)carbamoyl)benzenesulfonimidamide], the IC50 is, setting by setting: under setting [1], 200 to 1000 nM; under setting [2], 355 nM.

Consider `CC(C)(O)c1coc(S(=O)(=NC(=O)Nc2c3c(cc4c2CCC4)CCC3)NC#N)c1` (single isomer, unassigned) [Example 30, (S) or (R)-N-cyano-N′-((1,2,3,5,6,7-hexahydro-s-indacen-4-yl)carbamoyl)-4-(2-hydroxypropan-2-yl)furan-2-sulfonimidamide], for which the concentration for half-maximal inhibition (IC50) under setting [1] was 8 to 40 nM and the 50% inhibitory concentration (IC50) under setting [2] was 16.7 nM.

For `Cc1oc(S(=O)(=NC(=O)Nc2c(C(C)C)cc(F)cc2C(C)C)NC#N)cc1C(C)(C)O` (single isomer, unassigned) [Example 10, (S) or (R)-N-cyano-N′-((4-fluoro-2,6-diisopropylphenyl)carbamoyl)-4-(2-hydroxypropan-2-yl)-5-methylfuran-2-sulfonimidamide], the 50% inhibitory concentration (IC50) runs as follows: under setting [1], 1000 to 5000 nM; under setting [2], 2440 nM.

With `CC1CCc2c1nc1c(c2NC(=O)N=S(=O)(NC#N)c2cc(C(C)(C)O)cs2)CCC1` (single isomer, unassigned) [Example 16, (R,R) or (R,S)-N-cyano-4-(2-hydroxypropan-2-yl)-N′-(((S)-3-methyl-1,2,3,5,6,7-hexahydrodicyclopenta[b,e]pyridin-8-yl)carbamoyl)thiophene-2-sulfonimidamide], the half-inhibitory concentration (IC50) under setting [1] was in the range of 200 to 1000 nM and the IC50 under setting [2] was 204 nM.

Regarding `NS(=O)(=NC(=O)Nc1c2c(nc(C(F)(F)F)c1C1CC1)CCC2)c1ccn(C2CC2)n1` (stereo not shown) [Example 873, 1-Cyclopropyl-N′-((3-cyclopropyl-2-(trifluoromethyl)-6,7-dihydro-5H-cyclopenta[b]pyridin-4-yl)carbamoyl)-1H-pyrazole-3-sulfonimidamide], the 50% inhibitory concentration (IC50) was 40 to 200 nM under setting [3] and 128 nM under setting [4].

`NS(=O)(=NC(=O)Nc1c2c(nc(C(F)(F)F)c1C1CC1)CCC2)c1ccn(C2CC2)n1` (racemic) [Example 899, (S) or (RS)-1-cyclopropyl-N′-((3-cyclopropyl-2-(trifluoromethyl)-6,7-dihydro-5H-cyclopenta [b]pyridin-4-yl)carbamoyl)-1H-pyrazole-3-sulfonimidamide]: the IC50 reads like this: under setting [3], 5000 to 30000 nM; under setting [4], 9960 nM.

`CC(C)c1cc(C#N)cc(C(C)C)c1NC(=O)N=S(=O)(NC#N)c1sc(C(C)(C)O)nc1CO` (single isomer, unassigned) [Example 22, (R) or (S)-N-cyano-N′-((4-cyano-2,6-diisopropylphenyl)carbamoyl)-4-(hydroxymethyl)-2-(2-hydroxypropan-2-yl)thiazole-5-sulfonimidamide]: the IC50 runs as follows: under setting [5], 40 to 200 nM; under setting [6], 79.2 nM.

As for `CC(C)(O)c1ncc(S(=O)(=NC(=O)Nc2c3c(cc4c2CC4)CC3)NC#N)s1` (single isomer, unassigned) [Example 24, (R) or (S)-N-cyano-2-(2-hydroxypropan-2-yl)-N′-(tricyclo[6.2.0.03,6]deca-1,3(6),7-trien-2-ylcarbamoyl)thiazole-5-sulfonimidamide], the concentration for half-maximal inhibition (IC50) was 8 to 40 nM under setting [1] and 9.7 nM under setting [2].

`NS(=O)(=NC(=O)Nc1c2c(nc(C3CC3)c1C1CC1)CCC2)c1ccn(C2CC2)n1` (stereo not shown) [Example 877, 1-Cyclopropyl-N′-((2,3-dicyclopropyl-6,7-dihydro-5H-cyclopenta[b]pyridin-4-yl)carbamoyl)-1H-pyrazole-3-sulfonimidamide]: the IC50 by setting is: under setting [3], 40 to 200 nM; under setting [4], 154 nM.

Turning to `CC(C)(O)c1csc(S(=O)(=NC(=O)Nc2c3c(cc4c2CCC4)CCC3)NC#N)c1` (single isomer, unassigned) [Example 2, (R) or (S)-N-cyano-N′-((1,2,3,5,6,7-hexahydro-s-indacen-4-yl)carbamoyl)-4-(2-hydroxypropan-2-yl)thiophene-2-sulfonimidamide], the half-maximal inhibitory concentration (IC50) is 8 to 40 nM under setting [1] and 14.6 nM under setting [2].

With `CC(C)(O)c1coc(S(=O)(=NC(=O)Nc2c3c(cc4c2CCC4)CCC3)NC#N)c1` (single isomer, unassigned) [Example 29, (R) or (S)-N-cyano-N′-(1,2,3,5,6,7-hexahydro-s-indacen-4-ylcarbamoyl)-4-(2-hydroxypropan-2-yl)furan-2-sulfonimidamide], the half-maximal inhibitory concentration (IC50) runs as follows: under setting [1], 40 to 200 nM; under setting [2], 58.2 nM.

For `CC(C)(O)c1csc(S(=O)(=NC(=O)Nc2c3c(cc4c2CC4)CCC3)NC#N)c1` (single isomer, unassigned) [Example 7, (S) or (R)-N-cyano-4-(2-hydroxypropan-2-yl)-N′-((2,4,5,6-tetrahydro-1H-cyclobuta[f]inden-3-yl)carbamoyl)thiophene-2-sulfonimidamide], the IC50 under setting [1] is under 8 nM and the half-inhibitory concentration (IC50) under setting [2] came out at 6.8 nM.

Take `CC(C)(O)c1cccc(S(=O)(=NC(=O)Nc2c3c(cc4c2CCC4)CCC3)NC#N)c1` (single isomer, unassigned) [Example 31, (S) or (R)-N-cyano-N′-((1,2,3,5,6,7-hexahydro-s-indacen-4-yl)carbamoyl)-3-(2-hydroxypropan-2-yl)benzenesulfonimidamide]: the half-maximal inhibitory concentration (IC50) under setting [1] fell in the range of 8 to 40 nM and the concentration for half-maximal inhibition (IC50) under setting [2] was found to be 33.8 nM.

Consider `CC(C)(O)c1ncc(S(=O)(=NC(=O)Nc2c3c(cc4c2CC4)CC3)NC#N)s1` (single isomer, unassigned) [Example 23, (S) or (R)-N-cyano-2-(2-hydroxypropan-2-yl)-N′-(tricyclo[6.2.0.03,6]deca-1,3(6),7-trien-2-ylcarbamoyl)thiazole-5-sulfonimidamide], for which the IC50 is 8 to 40 nM under setting [5] and 38.9 nM under setting [2].

Turning to `CC(C)(O)c1nc(CO)c(S(=O)(=NC(=O)Nc2c3c(nc4c2CCC4(C)C)CCC3)NC#N)s1` (single isomer, unassigned) [Example 13, (R) or (S)-N-cyano-N′-((3,3-dimethyl-1,2,3,5,6,7-hexahydrodicyclopenta[b,e]pyridin-8-yl)carbamoyl)-4-(hydroxymethyl)-2-(2-hydroxypropan-2-yl)thiazole-5-sulfonimidamide], the IC50 under setting [5] is 40 to 200 nM and the 50% inhibitory concentration (IC50) under setting [6] came out at 112 nM.

For the molecule `CC(C)(O)c1nc(CO)c([S@](=O)(=NC(=O)Nc2c3c(nc4c2CCC4(C)C)CCC3)NC#N)s1` [Example 12, (S) or-N-cyano-N′-((3,3-dimethyl-1,2,3,5,6,7-hexahydrodicyclopenta[b,e]pyridin-8-yl)carbamoyl)-4-(hydroxymethyl)-2-(2-hydroxypropan-2-yl)thiazole-5-sulfonimidamide], the IC50 was 40 to 200 nM under setting [5] and 419 nM under setting [6].

For the molecule `CC1CCc2c1nc1c(c2NC(=O)N=S(=O)(NC#N)c2cc(C(C)(C)O)cs2)CCC1` (single isomer, unassigned) [Example 17, (R,S) or (R,R)-N-cyano-4-(2-hydroxypropan-2-yl)-N′-(((R)-3-methyl-1,2,3,5,6,7-hexahydrodicyclopenta[b,e]pyridin-8-yl)carbamoyl)thiophene-2-sulfonimidamide], the IC50 by setting is: under setting [1], 1000 to 5000 nM; under setting [2], 1240 nM.
